Here are results for one substance from patent US11433028B2, “Compositions for treating viral infections and methods for same” (Tiger Development, LLC, priority 2018, dated 2022).

Assay [1] has as its system SARS-CoV-2. Set-up: species or system mice. As to conditions: mouse, in vivo.
Assay [2] concerns SARS-CoV-2. Format: in vivo, mice.

Take polylysine: in the assay on SARS-CoV-2 [1], the improved survival rate worked out at 50% and the onset of morbidity result is recorded as “delayed onset of morbidity”. In addition, in the assay with SARS-CoV-2 [2] (mouse, in vivo), the “increase in total survival across the treatment period” value was found to be 5 fold; the “mice surviving the treatment and exposure period” value is on record as “six of ten”. The “body weight after the treatment and exposure period (recovery)” value in the assay on SARS-CoV-2 [2] (surviving mice, p<0.05, FIG. 3A/3B) was “increasing weight to near pre-treatment levels”.
